From US20110038948A1, “Methods of Reducing the Production of Reactive Oxygen Species and Methods of Screening or Identifying Compounds and Compositions that Reduce the Production of Reactive Oxygen Species” (UNIVERSITY OF TENNESSEE RESEARCH FOUNDATION, priority 2005, published 2011)

Assays:
Type in all cases: cell-based, mouse
adiponectin = assay: Adiponectin expression in 3T3-L1 adipocytes; conditions: 48 h
Protocol: (§1) 3T3-L1 pre-adipocytes were incubated at a density of 8000 cells/cm^2 (10 cm^2 dish) and grown in Dulbecco's modified Eagle's medium (DMEM) containing 10% FBS and antibiotics (adipocyte medium) at 37° C. in 5% CO2 in air. Confluent pre-adipocytes were induced to differentiate with a standard differentiation medium consisting of DMEM-F10 (1:1, vol/vol) medium supplemented with 1% fetal bovine serum (FBS), 1 μM dexamethasone, isobutylmethylxanthine (IBMX) (0.5 mM) and antibiotics (1% Penicillin-Streptomycin). Pre-adipocytes were maintained in this differentiation medium for 3 days and subsequently cultured in adipocyte medium. Cultures were re-fed every 2-3 days to allow 90% cells to reach fully differentiation before conducting chemical treatment. […] Cell viability was measured via trypan blue exclusion. Adipocyte and muscle 18s, TNFα, IL-6, IL-8, IL-15 and adiponectin were quantitatively measured using a smart cycler real-time PCR system (Cepheid, Sunnyvale, Calif.) with a TaqMan 1000 Core Reagent Kit (Applied Biosystems, Branchburg, N.J.). […] Reactions of quantitative RT-PCR for standards and unknown samples were also performed according to the instructions of Smart Cycler System (Cepheid, Sunnyvale, Calif.) and TaqMan Real Time PCR Core Kit (Applied Biosystems, Branchburg, N.J.). The mRNA quantitation for each sample was further normalized using the corresponding 18s quantitation.

3T3-L1 adipocytes [1] = assay: Intracellular Ca2+ in cultured adipocytes (fura-2)
Protocol: 3T3-L1 preadipocytes were incubated at a density of 8000 cells/cm^2 (10 cm^2 dish) and grown in Dulbecco's modified Eagle's medium (DMEM) containing 10% FBS and antibiotics (adipocyte medium) at 37° C. in 5% CO2 in air. Confluent preadipocytes were induced to differentiate with a standard differentiation medium consisting of DMEM-F10 (1:1, vol/vol) medium supplemented with 1% FBS, 1 μM dexamethasone, IBMX (0.5 mM) and antibiotics (1% Penicillin-Streptomycin). Preadipocytes were maintained in this differentiation medium for 3 days and subsequently cultured in adipocyte medium. Cultures were re-fed every 2-3 days to allow 90% of cells to reach full differentiation before conducting chemical treatment. Chemicals were freshly diluted in adipocyte medium before treatment. Cells were washed with fresh adipocyte medium, re-fed with medium containing the different treatments, and incubated at 37° C. in 5% CO2 in air before analysis. Cell viability was measured via trypan blue exclusion. [Ca^2+]i in adipocytes was measured using a fura-2 dual-wavelength fluorescence imaging system. Cells were plated in 35-mm dishes […]). […] Cells were loaded with fura-2 acetoxymethyl ester (fura-2 AM) (10 μmol/L) in the same buffer for 2 h at 37° C. in a dark incubator with 5% CO2. To remove extracellular dye, cells were rinsed with HBSS three times and then post-incubated at room temperature for an additional 1 h for complete hydrolysis of cytoplasmic fura-2 AM. The dishes with dye-loaded cells were mounted on the stage of Nikon TMS-F fluorescence inverted microscope with a Cohu model 4915 charge-coupled device (CCD) camera. Fluorescent images were captured alternatively at excitation wavelengths of 340 and 380 nm with an emission wavelength of 520 nm. After establishment of a stable baseline, the responses to 1α, 25-(OH)2-D3 was determined. [Ca^2+]i was calculated using a ratio equation as described previously. Each analysis evaluated responses of 5 representative whole cells. Images were analyzed with […]2 version 4.62 imaging software (Intracellular Imaging, Cincinnati, Ohio). […]

IL-15 = IL-15 expression in 3T3-L1 adipocytes; conditions: 1 μmol/L α±tocopherol added to 100 nmol/L H2O2, 48 h; P=0.043
Protocol: as §1

3T3-L1 adipocytes [2] = assay: Intracellular ROS generation in cultured adipocytes (H2-DCFDA); conditions: α-tocopherol 1 μmol/L added, all groups
Protocol: 3T3-L1 preadipocytes were incubated at a density of 8000 cells/cm^2 (10 cm^2 dish) and grown in Dulbecco's modified Eagle's medium (DMEM) containing 10% FBS and antibiotics (adipocyte medium) at 37° C. in 5% CO2 in air. Confluent preadipocytes were induced to differentiate with a standard differentiation medium consisting of DMEM-F10 (1:1, vol/vol) medium supplemented with 1% FBS, 1 μM dexamethasone, IBMX (0.5 mM) and antibiotics (1% Penicillin-Streptomycin). Preadipocytes were maintained in this differentiation medium for 3 days and subsequently cultured in adipocyte medium. Cultures were re-fed every 2-3 days to allow 90% of cells to reach full differentiation before conducting chemical treatment. Chemicals were freshly diluted in adipocyte medium before treatment. Cells were washed with fresh adipocyte medium, re-fed with medium containing the different treatments, and incubated at 37° C. in 5% CO2 in air before analysis. Cell viability was measured via trypan blue exclusion. […] Cells were loaded with H2-DCFDA (2 μmol/L) 30 minute before the end of the incubation period (48 h). After washing twice with PBS, cells were scraped and disrupted by sonication on ice (20 s). Fluorescence (emission 543 nm or 527 nm) and DNA content were then measured as described previously. The intensity of fluorescence was expressed as arbitrary units per ng DNA.

3T3-L1 adipocytes [3] = assay: Cell proliferation / DNA synthesis in cultured adipocytes (CyQUANT)
Protocol: 3T3-L1 preadipocytes were incubated at a density of 8000 cells/cm^2 (10 cm^2 dish) and grown in Dulbecco's modified Eagle's medium (DMEM) containing 10% FBS and antibiotics (adipocyte medium) at 37° C. in 5% CO2 in air. Confluent preadipocytes were induced to differentiate with a standard differentiation medium consisting of DMEM-F10 (1:1, vol/vol) medium supplemented with 1% FBS, 1 μM dexamethasone, IBMX (0.5 mM) and antibiotics (1% Penicillin-Streptomycin). Preadipocytes were maintained in this differentiation medium for 3 days and subsequently cultured in adipocyte medium. Cultures were re-fed every 2-3 days to allow 90% of cells to reach full differentiation before conducting chemical treatment. Chemicals were freshly diluted in adipocyte medium before treatment. Cells were washed with fresh adipocyte medium, re-fed with medium containing the different treatments, and incubated at 37° C. in 5% CO2 in air before analysis. Cell viability was measured via trypan blue exclusion. Cells were plated in DMEM with different treatment in duplicate in 96-well plates. After 48 h, a CyQUANT Cell Proliferation Kit (Molecular Probes, Eugene, Oreg.) was used following the manufacturer's protocol. a microplate fluorometer (Packard Instrument Company, Inc., Downers Grove, Ill.) was used to measure CyQUANT fluorescence. Cell viability was determined by Trypan blue exclusion examination.

## Cc1c(C)c2c(c(C)c1O)CC[C@@](C)(CCC[C@H](C)CCC[C@H](C)CCCC(C)C)O2 [α-tocopherol]
adiponectin
  effect on adiponectin production: increased
3T3-L1 adipocytes [1]; α-tocopherol 1 μmol/L plus H2O2, 4 hours
  effect on H2O2 induced increase in [Ca2+]i: reversed
3T3-L1 adipocytes [1]; α-tocopherol 1 μmol/L plus glucose 30 mmol/L, 4 hours
  effect on glucose induced increase in [Ca2+]i: partially blocked
IL-15
  increase in IL-15 as compared to H2O2-treated cells: 2.2 fold
3T3-L1 adipocytes [2]
  effect on ROS production: inhibited
3T3-L1 adipocytes [3]; α-tocopherol 1 μmol/L added, all groups
  effect on DNA synthesis: inhibited
3T3-L1 adipocytes [3]; α-tocopherol 1 μmol/L or nifedipine 10 μmol/L plus H2O2, 48 hours
  effect on H2O2 induced DNA synthesis: completely blocked
